This is an account of results in ChEMBL document CHEMBL5505986, “Design, synthesis and biological evaluation of thiazolyl-halogenated pyrroles or pyrazoles as novel antibacterial and antibiofilm agents” (Eur J Med Chem, 2024).

≈ marks a conversion by molar mass, not a printed value. Calls of active or inactive are those of the source. The calls are words filed in the database; no cut-off is given here.

The subject of series [1] is Enterococcus faecium. Put plainly: Antibacterial activity against clinical isolate Enterococcus faecium assessed as reduction in bacterial growth incubated for 24 hrs by broth microdilution method. Type of series: functional. (In broth dilution the organism is exposed to a series of concentrations in liquid medium.)
The test system of series [2] is NCI-H1975. Kind of series: Cytotoxicity against human NCI-H1975 cells measured after 72 hrs by SRB assay. Type of series: functional, cell-based. The note with it: NCI-H1975, 72 h.
For series [3], the system named is Staphylococcus aureus. Kind of series: Antibacterial activity against vancomycin-intermediate resistant Staphylococcus aureus ATCC 700699/Mu50 assessed as reduction in bacterial growth incubated for 24 hrs by broth microdilution method. Type of series: functional.
For series [4], the system named is NCI-H1299. Put plainly: Cytotoxicity against human NCI-H1299 cells measured after 72 hrs by SRB assay. Type of series: functional, cell-based. As to conditions: NCI-H1299, 72 h. In general terms: Sulforhodamine B stains cellular protein and so reports cell mass.
Series [5] relates to Streptococcus pyogenes. Put plainly: Antibacterial activity against Streptococcus pyogenes ATCC 12204 assessed as reduction in bacterial growth incubated for 24 hrs by broth microdilution method. The format is functional.
Series [6] is described as follows: Toxicity in Galleria mellonella larvae assessed as reduction in animal survival […]. The format is organism-based. As to conditions: in vivo, 80 h.
The subject of series [7] is Enterococcus faecium. Kind of series: Antibacterial activity against Enterococcus faecium Efm-HS06188 assessed as reduction in bacterial growth incubated for 24 hrs by broth microdilution method. Type of series: functional.
The subject of series [8] is Pseudomonas aeruginosa. Put plainly: Antibiofilm activity against Pseudomonas aeruginosa ATCC 47085 at sub-MIC doses measured after 24 hrs by crystal violet staining based analysis. Type of series: functional.
The test system of series [9] is Pseudomonas aeruginosa. Put plainly: Antibacterial activity against Pseudomonas aeruginosa ATCC 47085 assessed as reduction in bacterial growth incubated for 24 hrs by broth microdilution method. Type of series: functional.
Series [10] concerns Streptococcus pyogenes. Kind of series: Antibacterial activity against Streptococcus pyogenes infected in Galleria mellonella larvae infection model assessed as increase in number of surviving larvae at 1 mg/kg pre-infected with bacteria for 1 hr followed by compound addition measured every 12 hrs for 3 days. Type of series: functional, organism-based. As to conditions: time 3.0 day.

Series [11] concerns Streptococcus pyogenes. Kind of series: Antibacterial activity against Streptococcus pyogenes infected in Galleria mellonella larvae infection model assessed as prolongation of median survival time at 1 mg/kg pre-infected with bacteria for 1 hr followed by compound addition measured every 12 hrs for 3 days (reference value: 24 hrs). Type of series: functional. As to conditions: time 3 day.

For series [12], the system named is Staphylococcus aureus. Put plainly: Antibiofilm activity against vancomycin-intermediate resistant Staphylococcus aureus ATCC 700699/Mu50 at sub-MIC doses measured after 24 hrs by crystal violet staining based analysis. The format is functional.
For series [13], the system named is Acinetobacter baumannii. Kind of series: Antibacterial activity against Acinetobacter baumannii ATCC 19606 assessed as reduction in bacterial growth incubated for 24 hrs by broth microdilution method. Type of series: functional.
Series [14] is described as follows: Metabolic stability in monkey liver microsomes assessed as metabolic bioavailability at 0.1 uM preincubated for 10 mins followed by NADPH addition and measured upto 60 mins by LC-MS/MS analysis. Type of series: ADME, Macaca mulatta, Microsome. The note with it: rhesus monkey, time < 70 min. In general terms: Liver microsomes are a subcellular fraction often used to study metabolism.

Series [15] can be described thus: Toxicity in Galleria mellonella larvae assessed as reduction in animal survival at 20 mg/kg. Type of series: organism-based. The note with it: in vivo, 80 h.
Series [16] can be described thus: Metabolic stability in human liver microsomes assessed as metabolic bioavailability at 0.1 uM preincubated for 10 mins followed by NADPH addition and measured upto 60 mins by LC-MS/MS analysis. Type of series: ADME, Microsome. As to conditions: time < 70 min.
Series [17] relates to Staphylococcus aureus. Put plainly: Antibiofilm activity against vancomycin-intermediate resistant Staphylococcus aureus ATCC 700699/Mu50 at 1/8 time MIC measured after 24 hrs by crystal violet staining based analysis. The format is functional, organism-based.
Series [18] has as its system Staphylococcus aureus. Put plainly: Antibacterial activity against community associated methicillin-resistant Staphylococcus aureus USA400 assessed as reduction in bacterial growth incubated for 24 hrs by broth microdilution method. Type of series: functional.
In series [19] the test system is Enterococcus faecium. Put plainly: Antibiofilm activity against Enterococcus faecium clinical isolate at sub-MIC doses measured after 24 hrs by crystal violet staining based analysis. The format is functional.
A short description of series [20]: Metabolic stability in mouse liver microsomes assessed as metabolic bioavailability at 0.1 uM preincubated for 10 mins followed by NADPH addition and measured upto 60 mins by LC-MS/MS analysis. Type of series: ADME, Microsome. As to conditions: time < 70 min.
Series [21] relates to Klebsiella pneumoniae. Put plainly: Antibacterial activity against Klebsiella pneumoniae ATCC 13883 assessed as reduction in bacterial growth incubated for 24 hrs by broth microdilution method. Type of series: functional.
The nature of series [22]: Metabolic stability in dog liver microsomes assessed as metabolic bioavailability at 0.1 uM preincubated for 10 mins followed by NADPH addition and measured upto 60 mins by LC-MS/MS analysis. Type of series: ADME, Canis lupus familiaris, Microsome. As to conditions: time < 70 min.
For series [23], the system named is Enterococcus faecium. Kind of series: Antibacterial activity against Enterococcus faecium Efm-HS0649 assessed as reduction in bacterial growth incubated for 24 hrs by broth microdilution method. Type of series: functional.
Series [24] relates to Pseudomonas aeruginosa. Kind of series: Antibiofilm activity against Pseudomonas aeruginosa ATCC 47085 at 8 to 16 ug/ml measured after 24 hrs by crystal violet staining based analysis. The format is functional, organism-based. As to conditions: dose 8-16 µg/ml.
Series [25] relates to Enterococcus faecium. Kind of series: Antibacterial activity against glycopeptide-resistant Enterococcus faecium vanB type assessed as reduction in bacterial growth incubated for 24 hrs by broth microdilution method. Type of series: functional.
The nature of series [26]: Metabolic stability in rat liver microsomes assessed as metabolic bioavailability at 0.1 uM preincubated for 10 mins followed by NADPH addition and measured upto 60 mins by LC-MS/MS analysis. The format is ADME, Microsome. The note with it: time < 70 min.
Series [27] relates to Staphylococcus aureus. Kind of series: Antibacterial activity against community associated methicillin-resistant Staphylococcus aureus USA300 assessed as reduction in bacterial growth incubated for 24 hrs by broth microdilution method. The format is functional.

The term MIC denotes the least concentration at which growth counts as inhibited. What is called IC50 is the midpoint of a concentration-inhibition curve.

For the molecule `O=C(c1cc(Cl)c(Cl)[nH]1)c1cc(Cl)cc(Cl)c1O`, the MIC in [1] was 0.5 µg/mL (≈ 1.54 µM); in series [3] it was at most 0.125 µg/mL; in [5], at most 0.125 µg/mL. Also, the results for the IC50 in series [2] and in series [4] were 0.59 µg/mL (≈ 1.82 µM) and 0.82 µg/mL (≈ 2.52 µM), respectively. In addition, the Activity result in series [6] was “Toxic”.
`Oc1c(Br)cc(C(F)(F)F)cc1-c1csc(-c2[nH]c(Br)c(Br)c2Br)n1`: the MIC in series [7] is at most 0.125 µg/mL; in series [1], at most 0.125 µg/mL; in [9], over 256 µg/mL; in series [3] it was 2 µg/mL (≈ 3.2 µM); in series [5] it was at most 0.125 µg/mL; in series [13], over 256 µg/mL. In addition, the MIC is 16 µg/mL (≈ 25.6 µM) in series [18]; over 256 µg/mL in [21]; at most 0.125 µg/mL in [23]; 0.5 µg/mL (≈ 0.799 µM) in [25]; 16 µg/mL (≈ 25.6 µM) in series [27]. Besides, the Activity is given as over 60% in series [8], over 60% in series [12], “Non-Toxic” in series [15] and over 60% in [19]. The outcome in series [10], in series [17] and in series [24] was Active. For the same molecule, the MST in [11] came out at 36 h. Besides, the IC50 amounted to 4.4 µg/mL (≈ 7.03 µM) in series [2] and 8.25 µg/mL (≈ 13.2 µM) in series [4]. The Fh at 1 h, 0.1 µM came out at 36.9% in series [14]; 2.26% in series [16]; 43.3% in series [20]; 18.4% in series [22]; 65.7% in series [26].
